{"source": "paper PMC11012799", "about": "(Molecules, 2024)", "key": {"HeLa cells": {"system": "HeLa cells", "experiment": "Intracellular ROS measurement (H2DCFDA, flow cytometry)", "format": "cell-based, human", "details": "24 h, concentration equal to IC50, H2DCFDA staining", "procedure": "The intracellular ROS levels were evaluated using 2′,7′-dichlorofluorescein diacetate (H2DCFDA) staining. This cell membrane-permeable probe is deacetylated by cellular esterases to a non-fluorescent compound, which is then oxidized by ROS to 2′,7′-dichlorofluorescein (DCF), which remains in cells, is not removed from them, and emits strong fluorescence that can be quantified using a flow cytometer. To evaluate oxidative stress, HeLa cells were treated with the respective compound at a concentration equal to its IC50 value for 24 h, followed by staining with H2DCFDA. […]\nFigure 5 Intracellular ROS generation in HeLa cells after treatment with 5 (blue) and 7 (green) for 24 h at 37 °C and 5% CO2. […] Oxidative stress was evaluated using H2DCFDA by flow cytometry. Data are expressed as the mean ± SD of two experiments. Statistical significance in comparison with the untreated control, measured by two-way analysis of variance (ANOVA) followed by Bonferroni multiple comparison test, is indicated by asterisks: (*) p < 0.05.\nReactive oxygen species measurement: The intracellular level of ROS was analysed by staining with 2′,7′–dichlorofluorescein diacetate (H2DCFDA, Sigma-Aldrich, Darmstadt, Germany). […] This product is highly fluorescent and can be detected on a flow cytometer. […]"}, "[1]": {"system": "Klebsiella pneumoniae ATCC 13883", "experiment": "MIC, two-fold microdilution (EUCAST), K. pneumoniae reference strain", "format": "cell-based", "details": "Klebsiella pneumoniae, ATCC13883, 18 h, read-out: MIC (µM) Klebsiella pneumoniae ATCC 13883", "description": "(§1) A panel of reference bacteria, including Escherichia coli NCTC 8196, Staphylococcus aureus ATCC 6538, Klebsiella pneumoniae ATCC 13883, and Pseudomonas aeruginosa NCTC 6749, was used to assess the antibacterial activity of the nine tested aziridine phosphines (1–4) and aziridine phosphine oxides (5–9). The two-fold microdilution method, following EUCAST guidelines, was used to determine a minimal inhibitory concentration (MIC) of each compound, as presented in Table S1.\n(§2) Antibacterial activity: The in vitro antibacterial activity of nine tested aziridine phosphines (1–4) and aziridine phosphine oxides (5–9) was evaluated against reference bacterial strains (E. coli NCTC 8196, S. aureus ATCC 6538, K. pneumoniae ATCC 13883, P. aeruginosa NCTC 6749) and 12 S. aureus clinical isolates, including two methicillin-resistant isolates (MRSA, D15 and D17) obtained from infected patients hospitalized at the Oncological Hospital in Lodz (Poland). All strains were kept frozen at −80 °C in Tryptic Soy Broth with 15% glycerol. The minimal inhibitory concentration (MIC) is defined as the lowest concentration of the compound that prevents visible growth of bacteria using the microdilution method followed the EUCAST guidelines. Each compound was added to 96-well microplates in two-fold dilutions at concentrations from 3.125 to 100 μM in Mueller–Hinton broth. […] Bacterial culture was added into wells at a density of 5 × 10^5 CFU mL^−1, and plates were incubated at 37 °C for 18 h. As a positive control, an untreated bacterial culture was used, and a clear culture medium served as a negative control. The optical density at OD600 was measured using the SpectraMax i3 Multi-Mode Platform (Molecular Devices, San Jose, CA, USA). Ciprofloxacin hydrochloride (CIP, Sigma-Aldrich, Darmstadt, Germany) was used as a reference antimicrobial drug."}, "[2]": {"system": "Escherichia coli NCTC 8196", "experiment": "MIC, two-fold microdilution (EUCAST), E. coli reference strain", "format": "cell-based", "details": "Escherichia coli, NCTC8196, 18 h, read-out: MIC (µM) Escherichia coli NCTC 8196", "description": "as §1, §2"}, "[3]": {"system": "Staphylococcus aureus ATCC 6538", "experiment": "MIC, two-fold microdilution (EUCAST), S. aureus reference strain", "format": "cell-based", "details": "Staphylococcus aureus, ATCC6538, 18 h, read-out: MIC (µM) Staphylococcus aureus ATCC 6538", "description": "as §1, §2"}}, "data": [{"smiles": "CC(C)[C@@H]1CN1c1ccccc1P(=O)(c1ccccc1)c1ccccc1", "note": "[Compound 5]", "values": [{"measurement": "intracellular ROS levels compared to untreated control", "setting": "HeLa cells", "value": "the effect was significant only for 5"}, {"measurement": "MIC", "setting": "[1]", "value": "> 100", "unit": "µM"}, {"measurement": "MIC", "setting": "[2]", "value": "> 100", "unit": "µM"}, {"measurement": "MIC", "setting": "[3]", "value": 50, "unit": "µM"}]}, {"smiles": "CC(C)C[C@H]1CN1c1ccccc1P(=O)(c1ccccc1)c1ccccc1", "note": "[Compound 7]", "values": [{"measurement": "intracellular ROS levels compared to untreated control", "setting": "HeLa cells", "value": "increase in ROS levels"}, {"measurement": "MIC", "setting": "[1]", "value": "> 100", "unit": "µM"}, {"measurement": "MIC", "setting": "[2]", "value": "> 100", "unit": "µM"}, {"measurement": "MIC", "setting": "[3]", "value": 50, "unit": "µM"}]}]}
